Results reported in patent US20240307365A1, “Pharmaceutical Composition for Preventing or Treating Systemic Sclerosis” (Daewoong Pharmaceutical Co., Ltd., priority 2021, published 2024).
Where “and” joins values, the source holds several entries; their conditions need not be identical. Equal values may be shown once.

What was measured:
[1] = tested on: 3D skin organoid prepared using iPSC-derived fibroblasts from patients with systemic dermatosis; assay: Skin hardening alleviation in 3D skin organoid model (thickness by H&E staining); format: cell-based; conditions: 1 μM in DMSO solution, control DMSO only (FIG. 1)
Description: A 3D skin organoid was prepared using iPSC-derived fibroblasts from patients with systemic dermatosis according to the method described in the literature (Lancet. 2009 Nov. 21;374(9703):1745-53). When 1 μM of active ingredient was treated with DMSO solution, it was confirmed through H&E immunochemical staining that the thickness of the 3D skin organoid was reduced (FIG. 1). The control group was treated with only DMSO.

[2] = tested on: mouse model of systemic scleroderma skin organoid transplantation; assay: Skin hardening alleviation in 3D skin organoid transplantation mouse model (skin thickness, fibrosis factors by immunochemical staining); format: in vivo, SCID mice; conditions: daily for 2 weeks
Description: The previously constructed 3D skin organoid derived from the systemic scleroderma patient iPSC was transplanted into SCID mice to construct a mouse model of systemic scleroderma. The mouse skin tissue was cut into 1×2 cm, and then 3D skin organoid skin tissue was sutured to the mouse skin. For a skin transplantation method, it was transplanted to mice or the like using a tie-over dressing method used clinically. After placing a gauze on the suture site, it was tied with a suture and dressed with a band.
The active ingredient was subcutaneously administered at a dose of 3 mg/kg and 10 mg/kg daily for 2 weeks to a mouse model of systemic scleroderma skin organoid transplantation. For the negative control group (NC), a physiological saline was administered to a normal skin tissue, and for the positive control group (SSc), a physiological saline was administered to a systemic scleroderma skin organoid transplanted skin tissue. The skin thickness, which is the primary evaluation index of systemic scleroderma, was measured through immunochemical staining, and the results are shown in FIG. 2.
To confirm whether the fibrosis factor is reduced in systemic scleroderma skin tissue by the active ingredient, immunochemical staining was performed and the results are shown in FIG. 3.

[3] = tested on: systemic sclerosis-associated interstitial lung disease (SSc-ILD) mouse model administered with BLM; assay: SSc-ILD bleomycin osmotic pump mouse model: body weight (%); format: in vivo, C57BL/6 mice; conditions: for Body weight (%) change: individual animals 1-9
Description: (§1) Seven-week-old C57BL/6 mice were obtained and acclimatized indoors for 5 days or more. For the systemic sclerosis-related interstitial lung disease model, an osmotic pump injection model was designed. For that reason, if it is not modeling using an osmotic pump, it is a model in which BLM should be injected subcutaneously into the back of the test animal every day for 4 weeks, and this is because these tests can cause very extreme pain at the site of administration.
(§2) The incision site was sutured, an osmotic pump was inserted, bleomycin was administered for 1 week, and then the osmotic pump was removed on the 10th day. It was confirmed that systemic sclerosis-associated interstitial lung disease was induced in a mouse model administered with BLM for 1 week, and specific experimental groups are shown in Table 1 below.

[4] = tested on: systemic sclerosis-associated interstitial lung disease (SSc-ILD) mouse model administered with BLM; assay: SSc-ILD bleomycin osmotic pump mouse model: lung weight; format: in vivo, C57BL/6 mice; parameters: Lung weight: unit not given here; conditions: for Lung weight: individual animals 1-9, unit not given
Description: as §1, §2

[5] = tested on: systemic sclerosis-associated interstitial lung disease (SSc-ILD) mouse model administered with BLM; assay: SSc-ILD bleomycin osmotic pump mouse model: lung function evaluation (SpO2); format: in vivo, C57BL/6 mice
Description: as §1, §2
This lung function evaluation is an experiment to show the therapeutic effect of this active substance in patients with systemic sclerosis-associated interstitial lung diseases, and is the most direct and important evaluation index that has the greatest influence on the symptoms and quality of life of patients with systemic sclerosis-associated interstitial lung diseases, unlike the general pulmonary fibrosis ameliorating effect. This is an experiment that can most directly show the effect of improving lung function in an animal model of systemic sclerosis-associated interstitial lung disease by measuring the oxygen concentration in the body.
On the 21st day, it was measured with a SpO2 measuring device (Berry, Veterinary Pulse Oximeter) via the abdominal side of the mouse, and the results are shown in Table 5 and FIG. 3.

[6] = tested on: systemic sclerosis-associated interstitial lung disease (SSc-ILD) mouse model administered with BLM; assay: SSc-ILD bleomycin osmotic pump mouse model: skin thickness (H&E, MT stain); format: in vivo, C57BL/6 mice; conditions: day 28; for Skin thickness: individual animals 1-9
Description: as §1, §2
On the day 28, skin tissues were extracted from mice and subjected to H&E and Mansson's Trichrome (MT stain). The skin thickness of 10 sites was measured randomly through the image of the photograph in which stain progressed (progressed at a minimum interval of 200˜300 um). The entire area of the photograph was measured as evenly as possible, and the areas where the stain tissue was damaged were excluded from the measurement.

[7] = tested on: systemic sclerosis-associated interstitial lung disease (SSc-ILD) mouse model administered with BLM; assay: SSc-ILD bleomycin osmotic pump mouse model: collagen content (hydroxyproline) in skin tissue; format: in vivo, C57BL/6 mice; conditions: for hydroxyproline value, ratio compared to a normal group: skin tissue, individual animals 1-9
Description: as §1, §2
An attempt was made to measuring the amount of hydroxyproline in the mouse and thus indirectly measure the collagen content. Analysis was performed using INSOLUBLE Collagen Assay (Biocolor, S2000), and the details are as follows.
First, 10 mg of frozen skin tissue was pulverized with 100 ul of fragmentation reagent. 100 ul of 37% HCl was added and incubated at 65° C. for 3 hours. The contents of the tube were shaken at 30 minute intervals to aid tissue disintegration. Centrifugation was performed at 12,000 rpm for 10 minutes. After centrifugation, it was transferred to a 1.5 ml tube. 50 ul was taken from a sample between 10 and 100 ul, distilled water was added, and the sample was prepared so as to match with 100 ul.
1 ml of dye was added to 100 ul of the prepared sample, and mixed for 30 minutes. The mixture was centrifuged at 12,000 rpm for 10 minutes, and then transferred to a new tube. The dye was removed with 750 ul of ice-cold acid-salt wash reagent. After centrifugation at 12,000 rpm for 10 minutes, it was transferred to a new tube. The tube was mixed with the collagen-binding dye using a vortex mixer, and gollagen binding dye was dissolved within 10 minutes to complete the measurement preparation (measurement should be completed within 2˜3 hours). The tube cap was closed until it was ready to measure absorbance.
200 ul of each sample was transferred to an individual well of a 96 micro-well plate, and the absorbance was measured at 560 nm.

[8] = 3 and 10 mg/kg subcutaneous, immunochemical staining, *p<0.05, ***p<0.001 (FIG. 3)

## O[C@H]1CCCN[C@@H]1CCCn1cnc2c(Cl)c(Cl)ccc21 [Active ingredient]
[1]
  thickness of the 3D skin organoid: reduced
[2]; 3 mg/kg and 10 mg/kg subcutaneous, ***p<0.001 (FIG. 2)
  thickness of the skin tissue: significantly reduced
[2]; [8]
  fibrotic factor Collagen I in skin tissue: significantly reduced
  fibrotic factor Collagen III in skin tissue: significantly reduced
  fibrotic factor aSMA in skin tissue: significantly reduced
[3]; 3 mg/kg oral, 28 days
  Body weight (%) change: −2.45% and −2.14% and 1.34% and −0.33% and −1.93% and 8.65% and 3.02% and −0.36% and 1.07%
[3]; 10 mg/kg oral, 28 days
  Body weight (%) change: 4.62% and 2.54% and 1.96% and −4.1% and −2.48% and 0.48% and 0.14% and 4.88% and 4.78%
[3]; 30 mg/kg oral, 28 days
  Body weight (%) change: 12.09% and 7.78% and 2.13% and 2.34% and 1.45% and 9.52% and 5.35% and −2.86% and 7.57%
[3]; 30 mg/kg oral, 28 days, p<0.01
  body weight compared to the vehicle: significantly increased
[3]; from 3 mg/kg oral, 28 days
  changes in body weight, significance: significant results
[4]; 3 mg/kg oral
  Lung weight: 1.01 and 1.14 (2×) and 1.08 (2×) and 0.98 (2×) and 1.15 and 0.92
[4]; 10 mg/kg oral
  Lung weight: 0.98 and 1.22 and 1.14 and 1.12 and 0.95 and 1.16 and 0.99 and 0.93 and 1.08
[4]; 30 mg/kg oral
  change in lung weight corrected by body weight, significance: significance increased to p<0.01
  Lung weight: 1.10 and 0.99 and 0.90 and 0.98 (2×) and 1.03 and 0.94 and 1.09 and 0.97
[4]; from 10 mg/kg oral
  change in lung weight corrected by body weight, significance: showed a significance
[4]; only at 30 mg/kg oral
  change in lung weight, significance: significant tendency
[5]; 30 mg/kg oral, day 21
  oxygen saturation recovery rate versus nintedanib (60 mg/kg) group: comparable to that of nintedanib
[5]; 30 mg/kg oral, day 21, p<0.001
  SpO2 (oxygen saturation) compared with the vehicle: higher oxygen saturation
[5]; from 10 mg/kg oral, day 21 (FIG. 7)
  SpO2 (oxygen saturation), significance: significant results
[6]; 3 mg/kg oral
  density of collagen in the skin (MT stain): tendency to decrease
  skin thickness, significance: did not significantly decrease
  Skin thickness: 809.254 μm and 771.562 μm and 778.660 μm and 688.725 μm and 759.037 μm and 677.319 μm and 744.986 μm and 904.141 μm and 641.841 μm
[6]; 10 mg/kg oral
  skin thickness improvement effect compared with 60 mg/kg of nintedanib: superior
  Skin thickness: 526.170 μm and 521.027 μm and 425.415 μm and 456.862 μm and 672.616 μm and 593.826 μm and 601.558 μm and 809.106 μm and 708.308 μm
[6]; 30 mg/kg oral, P<0.0001 or less
  skin thickness, significance: very significant results
[6]; 30 mg/kg oral
  Skin thickness: 475.515 μm and 412.271 μm and 525.311 μm and 593.963 μm and 526.388 μm and 443.336 μm and 601.558 μm and 558.530 μm and 479.961 μm
[6]; active ingredient administered as a whole
  collagen density in the skin (MT stain): decreased
[6]; from 10 mg/kg oral
  skin thickness, significance: significant results
[7]; 3 mg/kg oral
  hydroxyproline value, ratio compared to a normal group: 1.51 (2×) and 1.96 and 1.66 and 1.94 and 1.85 and 1.74 and 1.57 and 2.01
[7]; 10 mg/kg oral
  hydroxyproline value, ratio compared to a normal group: 2.27 and 2.26 (2×) and 1.70 and 1.93 and 1.57 and 2.16 and 1.82 and 2.10
[7]; 30 mg/kg oral, P<0.001 or less
  amount of hydroxyproline in the skin, significance: very significant result
[7]; 30 mg/kg oral
  hydroxyproline value, ratio compared to a normal group: 1.70 and 1.48 and 1.81 and 2.04 and 2.09 (2×) and 1.75 and 1.77 and 1.28
[7]; from 10 mg/kg oral
  amount of hydroxyproline in the skin, significance: significant results

## COC(=O)c1ccc2c(c1)NC(=O)/C2=C(\Nc1ccc(N(C)C(=O)CN2CCN(C)CC2)cc1)c1ccccc1 [NIN, Nintedanib, reference compound]
[3]; nintedanib 60 mg/kg oral
  Body weight (%) change: −0.45% and 0.58% and 8.79% and 0.44% and −2.94% and 2.46% and 4.14% and 1.78% and 4.49%
[4]; nintedanib 60 mg/kg oral
  Lung weight: 0.96 and 0.99 (2×) and 1.04 and 0.95 and 1.01 and 0.98 and 1.16 and 0.89
[6]; nintedanib 60 mg/kg oral
  Skin thickness: 675.558 μm and 623.019 μm and 651.831 μm and 660.809 μm and 649.479 μm and 620.302 μm and 651.572 μm and 856.355 μm and 664.973 μm
[7]; nintedanib 60 mg/kg oral
  hydroxyproline value, ratio compared to a normal group: 1.34 and 1.83 and 1.63 and 1.53 and 1.08 and 1.37 and 1.43 and 1.65 and 1.45
